# Measured values published in patent US4088653A, “Tetrahydropyridyl derivatives” (Canadian Patents and Developments Limited, priority 1976, dated 1978).
# Where two headings read alike, the source gives them in different places.
# Columns and labels:
# phenylquinone-writhing = assay: Analgesic activity, phenylquinone-writhing test; type: in vivo, Swiss albino mice; settings: for ED50: Mus musculus, sc, read-out: Ed50 (analgesic activity); for Analgesic activity (in words): mouse, in vivo
# Protocol: (§1) Initially the activity of the compound tested on an animal was determined at a single dose. If the substance was active at this dose, it was subjected to limited repeat testing. If the presence of activity was confirmed by repetition of the testing, a dose response relation was constructed and the effective dose (ED50) determined. If toxicity was encountered with the initial dose, the dose was reduced until one was reached which was tolerated by the animals tested.
# The active ingredients were suspended in a solution of physiological saline and "Tween 80" (TM) surfactant. A dose amounting to 10 milliliters of physiological saline solution and active ingredient per kilogram of bodyweight was administered to the mice according to the dosage as set out in Table 2.
# blood-glucose = assay: Determination of blood-glucose (hyperglycemic activity); type: in vivo, Wistar rats; settings: for Hyperglycemic activity (in words): rat, in vivo; for % change in blood-glucose concentrations: oral, fasted Wistar rats, 4 hours post-treatment
# Protocol: as §1
# Substances were suspended in distilled water and were administered orally to over-night fasted Wistar rats. […] (Escalab ® G:15) (Barthelmai and Czok, Klinische Wochenschrift 40: 585 (1962)).
# carageenan inflamed paw = assay: Anti-inflammatory activity, carageenan-inflamed hind paw volume; type: in vivo, Sprague-Dawley rats; settings: for Response % animals protected, 3 hours after drug / Response % animals protected, 5 hours after drug: subcutaneous, Sprague-Dawley rats; for Anti-inflammatory activity (in words): rat, in vivo
# Protocol: as §1
# Substances were administered subcutaneously to Sprague-Dawley rats, weighing 100-120 g. A suspension of 0.03% carageenan was injected under the plantar skin of a hind paw. The increase in volume of the inflamed paw was measured 3 and 5 hours after drug administration.
# [1] = 32 mg/kg, subcutaneous, Swiss albino mice
# [2] = 64 mg/kg, subcutaneous, Swiss albino mice
# [3] = 128 mg/kg, subcutaneous, Swiss albino mice
# [4] = 256 mg/kg, subcutaneous, Swiss albino mice
# [5] = subcutaneous, Swiss albino mice, method of Litchfield and Wilcoxon
SMILES,Response % inhibition (phenylquinone-writhing) (phenylquinone-writhing; [1]),Response % inhibition (phenylquinone-writhing) (phenylquinone-writhing; [2]),Response % inhibition (phenylquinone-writhing) (phenylquinone-writhing; [3]),Response % inhibition (phenylquinone-writhing) (phenylquinone-writhing; [4]),ED50 (phenylquinone-writhing; [5]),Analgesic activity (in words) (phenylquinone-writhing),Hyperglycemic activity (in words) (blood-glucose),"Response % animals protected, 3 hours after drug (carageenan inflamed paw; 64 mg/kg)","Response % animals protected, 5 hours after drug (carageenan inflamed paw; 64 mg/kg)",Anti-inflammatory activity (in words) (carageenan inflamed paw),other results
"CC(=O)Oc1ccccc1C(=O)O [Aspirin (TM), reference compound]",–,–,–,–,–,–,–,–,–,–,ED50 (phenylquinone-writhing): 52 mg/kg
"O=C(NN1CC=CCC1)c1ccncc1 [Compound A-13, N-(4-pyridylcarbonylimino)-1,2,5,6-tetrahydropyridine]",38.6%,58.0%,80.8%,96.0%,53 mg/kg,active analgesics,demonstrated hyperglycemic activity,25%,75%,striking anti-inflammatory action,Analgesic activity (in words) (phenylquinone-writhing; listed as A13): analgesic; Hyperglycemic activity (in words) (blood-glucose; listed as A13): hyper-; Anti-inflammatory activity (in words) (carageenan inflamed paw; listed as A13): anti-inflammatory
"O=C(NN1CC=CCC1)c1cccnc1 [Compound A-14, N-(3-pyridylcarbonylimino)-1,2,5,6-tetrahydropyridine]",38.9%,59.2%,81.2%,89.6%,47 mg/kg,active analgesics,demonstrated hyperglycemic activity,50%,0%,–,Analgesic activity (in words) (phenylquinone-writhing; listed as A14): analgesic; Hyperglycemic activity (in words) (blood-glucose; listed as A14): hyper-
"O=C(NN1CC=CCC1)c1ccccn1 [Compound A-19, N-(2-pyridylcarbonylimino)-1,2,5,6-tetrahydropyridine]",–,–,57.3%,–,–,active analgesics,demonstrated hyperglycemic activity,25%,75%,striking anti-inflammatory action,Analgesic activity (in words) (phenylquinone-writhing; listed as A19): analgesic; % change in blood-glucose concentrations (blood-glucose; 100 mg/kg): +50%; % change in blood-glucose concentrations (blood-glucose; 200 mg/kg): +50%; Hyperglycemic activity (in words) (blood-glucose; listed as A19): hyper-; Anti-inflammatory activity (in words) (carageenan inflamed paw; listed as A19): anti-inflammatory
"O=C(NN1CC=CCC1)c1ccccc1 [Compound A-20, N-(benzoylimino)-1,2,5,6-tetrahydropyridine]",57.4%,59.0%,88.2%,98.0%,36 mg/kg,active analgesics,–,25%,50%,–,"Response % inhibition (phenylquinone-writhing) (phenylquinone-writhing; 16 mg/kg, subcutaneous, Swiss albino mice): 26.2%; Analgesic activity (in words) (phenylquinone-writhing; listed as A20): analgesic"
"O=C(NN1CCC=C(CCCO)C1)c1ccccc1 [Compound A-21, N-(benzoylimino)-3-(3^1-hydroxypropyl)-1,2,5,6-tetrahydropyridine]",–,–,20%,–,–,analgesic (slight),–,–,–,–,–
"O=C(NN1CCC=C(CCCO)C1)c1ccncc1 [Compound A-22, N-(4-pyridylcarbonylimino)-3-(3^1-hydroxypropyl)-1,2,5,6-tetrahydropyridine]",–,–,43%,–,–,analgesic (slight),–,–,–,–,–
"O=C(NN1CC=C(CCCO)CC1)c1ccncc1 [Compound A-23, N-(4-pyridylcarbonylimino)-4-(3^1-hydroxypropyl)-1,2,5,6-tetrahydropyridine]",–,–,11%,–,–,–,–,25%,75%,striking anti-inflammatory action,Anti-inflammatory activity (in words) (carageenan inflamed paw; listed as A23): anti-inflammatory
"COc1ccc2c(c1)c(CC(=O)O)c(C)n2C(=O)c1ccc(Cl)cc1 [Indomethazine (TM), reference compound]",–,–,–,–,–,–,–,–,–,–,"Response % animals protected, 3 hours after drug (carageenan inflamed paw; 12 mg/kg): 50%; Response % animals protected, 5 hours after drug (carageenan inflamed paw; 12 mg/kg): 50%"
